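Where inhibition never reached the appropriate level, the endpoint shown equals the highest concentration tested. Otherwise, values were interpolated linearly from a five-concentration, 48-hour dose response in 96-well plates. GI50: concentration for 50% inhibition of growth. TGI denotes the concentration required for complete inhibition of growth.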 *1 amine or outer side, *2 acyl side, *3 side chain or, on linkers, in order; H or OH if unused. Where a SMILES comes first, the peptide text is derived from it. Bridges are numbered along the chain shown (N, C = ends). [ ]: non-standard residue; d: D form. Adda = CO[C@@H](Cc1ccccc1)[C@@H](C)/C=C(C)/C=C/[C@H](N[*:1])[C@H](C)C(=O)[*:2]; dAsp(3S-Me) = C[C@H](C(=O)[*:3])[C@@H](N[*:1])C(=O)[*:2]; d(γGlu) = O=C(O)[C@@H](CCC(=O)[*:2])N[*:1]; NMeDha = C=C(NC)C(=O)O
How the values were obtained:
Experiment in all cases: NCI anticancer screen, dose series, 48 h
RPMI-8226 leukemia = test system: RPMI-8226 leukemia
SF-539 CNS = test system: SF-539 CNS
IGROV1 ovarian = test system: IGROV1 ovarian
NCI-H226 lung = test system: NCI-H226 lung
SK-OV-3 ovarian = test system: SK-OV-3 ovarian
UACC-257 melanoma = test system: UACC-257 melanoma
MOLT-4 leukemia = test system: MOLT-4 leukemia
UO-31 renal = test system: UO-31 renal
U251 CNS = test system: U251 CNS
HCC-2998 colon = test system: HCC-2998 colon
TK-10 renal = test system: TK-10 renal
MALME-3M melanoma = test system: MALME-3M melanoma
SNB-75 CNS = test system: SNB-75 CNS
MCF7 breast = test system: MCF7 breast
HT29 colon = test system: HT29 colon
A549 NSCLC = test system: A549 NSCLC
K-562 leukemia = test system: K-562 leukemia
PC-3 prostate = test system: PC-3 prostate
LOX IMVI melanoma = test system: LOX IMVI melanoma
BT-549 breast = test system: BT-549 breast
UACC-62 melanoma = test system: UACC-62 melanoma
COLO 205 colon = test system: COLO 205 colon
HCT-15 colon = test system: HCT-15 colon
ACHN renal = test system: ACHN renal
RXF 393 renal = test system: RXF 393 renal
OVCAR-8 ovarian = test system: OVCAR-8 ovarian
SK-MEL-28 melanoma = test system: SK-MEL-28 melanoma
SNB-19 CNS = test system: SNB-19 CNS
SK-MEL-5 melanoma = test system: SK-MEL-5 melanoma
NCI/ADR-RES ovarian = test system: NCI/ADR-RES ovarian
DU-145 prostate = test system: DU-145 prostate
EKVX NSCLC = test system: EKVX NSCLC
CAKI-1 renal = test system: CAKI-1 renal
NCI-H522 lung = test system: NCI-H522 lung
CCRF-CEM leukemia = test system: CCRF-CEM leukemia
MDA-MB-231 breast = test system: MDA-MB-231 breast
SF-295 CNS = test system: SF-295 CNS
SF-268 CNS = test system: SF-268 CNS
HOP-92 NSCLC = test system: HOP-92 NSCLC
KM12 colon = test system: KM12 colon
HS 578T breast = test system: HS 578T breast
SK-MEL-2 melanoma = test system: SK-MEL-2 melanoma
OVCAR-4 ovarian = test system: OVCAR-4 ovarian
OVCAR-5 ovarian = test system: OVCAR-5 ovarian
786-0 renal = test system: 786-0 renal
HOP-62 NSCLC = test system: HOP-62 NSCLC
SW-620 colon = test system: SW-620 colon
M14 melanoma = test system: M14 melanoma
SN12C renal = test system: SN12C renal
NCI-H460 lung = test system: NCI-H460 lung
SR leukemia = test system: SR leukemia
HL-60(TB) leukemia = test system: HL-60(TB) leukemia
HCT-116 colon = test system: HCT-116 colon
MDA-MB-435 = test system: MDA-MB-435
T-47D breast = test system: T-47D breast
NCI-H23 lung = test system: NCI-H23 lung
OVCAR-3 ovarian = test system: OVCAR-3 ovarian

`N#C/C(=C\c1ccccc1)c1nc(-c2cc3ccccc3oc2=O)cs1` was tested, and the TGI (RPMI-8226 leukemia) was > 100 µM, the TGI (SF-539 CNS) was > 100 µM and the TGI (IGROV1 ovarian) was > 100 µM. For the same compound, the TGI (NCI-H226 lung) was > 100 µM, the TGI (SK-OV-3 ovarian) was > 100 µM and the TGI (UACC-257 melanoma) was > 100 µM. The TGI (MOLT-4 leukemia) was > 100 µM, the TGI (UO-31 renal) was > 100 µM and the TGI (U251 CNS) was > 100 µM. For the same compound, the TGI (HCC-2998 colon) was > 100 µM, the TGI (TK-10 renal) was > 100 µM and the TGI (MALME-3M melanoma) was > 100 µM. For the same compound, the TGI (SNB-75 CNS) was > 100 µM, the TGI (MCF7 breast) was > 100 µM and the TGI (HT29 colon) was > 100 µM. For the same compound, the TGI (A549 NSCLC) was > 100 µM, the TGI (K-562 leukemia) was > 100 µM and the TGI (PC-3 prostate) was > 100 µM. The TGI (LOX IMVI melanoma) was > 100 µM, the TGI (BT-549 breast) was 77.1 µM and the TGI (UACC-62 melanoma) was > 100 µM. The TGI (COLO 205 colon) was > 100 µM, the TGI (HCT-15 colon) was > 100 µM and the TGI (ACHN renal) was > 100 µM. The TGI (RXF 393 renal) was > 100 µM, the TGI (OVCAR-8 ovarian) was > 100 µM and the TGI (SK-MEL-28 melanoma) was > 100 µM. The TGI (SNB-19 CNS) was > 100 µM, the TGI (SK-MEL-5 melanoma) was > 100 µM and the TGI (NCI/ADR-RES ovarian) was > 100 µM. For the same compound, the TGI (DU-145 prostate) was > 100 µM, the TGI (EKVX NSCLC) was > 100 µM and the TGI (CAKI-1 renal) was > 100 µM. The TGI (NCI-H522 lung) was > 100 µM, the TGI (CCRF-CEM leukemia) was > 100 µM and the TGI (MDA-MB-231 breast) was > 100 µM. For the same compound, the TGI (SF-295 CNS) was > 100 µM, the TGI (SF-268 CNS) was > 100 µM and the TGI (HOP-92 NSCLC) was > 100 µM. For the same compound, the TGI (KM12 colon) was > 100 µM, the TGI (HS 578T breast) was 82.1 µM and the TGI (SK-MEL-2 melanoma) was > 100 µM. The TGI (OVCAR-4 ovarian) was > 100 µM, the TGI (OVCAR-5 ovarian) was > 100 µM and the TGI (786-0 renal) was > 100 µM. The TGI (HOP-62 NSCLC) was > 100 µM, the TGI (SW-620 colon) was > 100 µM and the TGI (M14 melanoma) was > 100 µM. For the same compound, the TGI (SN12C renal) was > 100 µM, the TGI (NCI-H460 lung) was > 100 µM and the TGI (SR leukemia) was > 100 µM. For the same compound, the TGI (HL-60(TB) leukemia) was > 100 µM, the TGI (HCT-116 colon) was > 100 µM and the TGI (MDA-MB-435) was > 100 µM. For the same compound, the TGI (T-47D breast) was > 100 µM.

With `C=C1C(=O)N[C@H](C)C(=O)N[C@@H](CC(C)C)C(=O)N[C@@H](C(=O)O)[C@H](C)C(=O)N[C@@H](CCCN=C(N)N)C(=O)N[C@@H](/C=C/C(C)=C/[C@H](C)[C@H](Cc2ccccc2)OC)[C@H](C)C(=O)N[C@@H](C(=O)O)CCC(=O)N1C` (R[Adda][d(γGlu)][NMeDha][dA]L[dAsp(3S-Me)]-OH; lactam N-7) the GI50 (RPMI-8226 leukemia) was > 5 µM, the TGI (RPMI-8226 leukemia) was > 5 µM and the GI50 (SF-539 CNS) was > 5 µM. For the same compound, the TGI (SF-539 CNS) was > 5 µM, the GI50 (IGROV1 ovarian) was 0.305 µM and the TGI (IGROV1 ovarian) was > 5 µM. For the same compound, the GI50 (NCI-H226 lung) was > 5 µM, the TGI (NCI-H226 lung) was > 5 µM and the GI50 (NCI-H23 lung) was > 5 µM. The TGI (NCI-H23 lung) was > 5 µM, the GI50 (SK-OV-3 ovarian) was > 5 µM and the TGI (SK-OV-3 ovarian) was > 5 µM. The GI50 (UACC-257 melanoma) was > 5 µM, the TGI (UACC-257 melanoma) was > 5 µM and the GI50 (MOLT-4 leukemia) was > 5 µM. The TGI (MOLT-4 leukemia) was > 5 µM, the GI50 (UO-31 renal) was > 5 µM and the TGI (UO-31 renal) was > 5 µM. For the same compound, the GI50 (HCC-2998 colon) was > 5 µM, the TGI (HCC-2998 colon) was > 5 µM and the GI50 (TK-10 renal) was > 5 µM. For the same compound, the TGI (TK-10 renal) was > 5 µM, the GI50 (SNB-75 CNS) was > 5 µM and the TGI (SNB-75 CNS) was > 5 µM. The GI50 (MCF7 breast) was > 5 µM, the TGI (MCF7 breast) was > 5 µM and the GI50 (HT29 colon) was > 5 µM. The TGI (HT29 colon) was > 5 µM, the GI50 (A549 NSCLC) was 4.68 µM and the TGI (A549 NSCLC) was > 5 µM. The GI50 (K-562 leukemia) was > 5 µM, the TGI (K-562 leukemia) was > 5 µM and the GI50 (PC-3 prostate) was > 5 µM. For the same compound, the TGI (PC-3 prostate) was > 5 µM, the GI50 (LOX IMVI melanoma) was > 5 µM and the TGI (LOX IMVI melanoma) was > 5 µM. For the same compound, the GI50 (BT-549 breast) was > 5 µM, the TGI (BT-549 breast) was > 5 µM and the GI50 (UACC-62 melanoma) was > 5 µM. The TGI (UACC-62 melanoma) was > 5 µM, the GI50 (COLO 205 colon) was > 5 µM and the TGI (COLO 205 colon) was > 5 µM. The GI50 (HCT-15 colon) was > 5 µM, the TGI (HCT-15 colon) was > 5 µM and the GI50 (RXF 393 renal) was > 5 µM. The TGI (RXF 393 renal) was > 5 µM, the GI50 (OVCAR-8 ovarian) was > 5 µM and the TGI (OVCAR-8 ovarian) was > 5 µM. For the same compound, the GI50 (SK-MEL-28 melanoma) was > 5 µM, the TGI (SK-MEL-28 melanoma) was > 5 µM and the GI50 (SNB-19 CNS) was > 5 µM. The TGI (SNB-19 CNS) was > 5 µM, the GI50 (SK-MEL-5 melanoma) was > 5 µM and the TGI (SK-MEL-5 melanoma) was > 5 µM. The GI50 (NCI/ADR-RES ovarian) was > 5 µM, the TGI (NCI/ADR-RES ovarian) was > 5 µM and the GI50 (DU-145 prostate) was > 5 µM. The TGI (DU-145 prostate) was > 5 µM, the GI50 (EKVX NSCLC) was > 5 µM and the TGI (EKVX NSCLC) was > 5 µM. The GI50 (CAKI-1 renal) was > 5 µM, the TGI (CAKI-1 renal) was > 5 µM and the GI50 (NCI-H522 lung) was 4.94 µM. For the same compound, the TGI (NCI-H522 lung) was > 5 µM, the GI50 (OVCAR-3 ovarian) was > 5 µM and the TGI (OVCAR-3 ovarian) was > 5 µM. The GI50 (MDA-MB-231 breast) was > 5 µM, the TGI (MDA-MB-231 breast) was > 5 µM and the GI50 (SF-295 CNS) was > 5 µM. The TGI (SF-295 CNS) was > 5 µM, the GI50 (SF-268 CNS) was > 5 µM and the TGI (SF-268 CNS) was > 5 µM. For the same compound, the GI50 (HOP-92 NSCLC) was > 5 µM, the TGI (HOP-92 NSCLC) was > 5 µM and the GI50 (KM12 colon) was > 5 µM. For the same compound, the TGI (KM12 colon) was > 5 µM, the GI50 (HS 578T breast) was > 5 µM and the TGI (HS 578T breast) was > 5 µM. For the same compound, the GI50 (SK-MEL-2 melanoma) was > 5 µM, the TGI (SK-MEL-2 melanoma) was > 5 µM and the GI50 (OVCAR-4 ovarian) was > 5 µM. For the same compound, the TGI (OVCAR-4 ovarian) was > 5 µM, the GI50 (OVCAR-5 ovarian) was > 5 µM and the TGI (OVCAR-5 ovarian) was > 5 µM. The GI50 (786-0 renal) was > 5 µM, the TGI (786-0 renal) was > 5 µM and the GI50 (HOP-62 NSCLC) was > 5 µM. The TGI (HOP-62 NSCLC) was > 5 µM, the GI50 (SW-620 colon) was > 5 µM and the TGI (SW-620 colon) was > 5 µM. The GI50 (M14 melanoma) was > 5 µM, the TGI (M14 melanoma) was > 5 µM and the GI50 (SN12C renal) was > 5 µM. For the same compound, the TGI (SN12C renal) was > 5 µM, the GI50 (NCI-H460 lung) was > 5 µM and the TGI (NCI-H460 lung) was > 5 µM. The GI50 (SR leukemia) was 1.19 µM, the TGI (SR leukemia) was > 5 µM and the GI50 (HL-60(TB) leukemia) was > 5 µM. The TGI (HL-60(TB) leukemia) was > 5 µM, the GI50 (HCT-116 colon) was > 5 µM and the TGI (HCT-116 colon) was > 5 µM. The GI50 (MDA-MB-435) was > 5 µM, the TGI (MDA-MB-435) was > 5 µM and the GI50 (T-47D breast) was > 5 µM. For the same compound, the TGI (T-47D breast) was > 5 µM.
